Test results published in PMC4774911, “Biochemical Screening of Five Protein Kinases from Plasmodium falciparum against 14,000 Cell-Active Compounds” (PLoS ONE, 2016).
“And” between values parts separate entries of the source, which are not always exact repeats. Equal values may be shown once.

Tests used:
Assay in all cases: biochemical
[1] = molecular target: CIT (Homo sapiens, UniProt O14578)
[2] = molecular target: T1, TBK1 (Homo sapiens, UniProt Q9UHD2)
T1 sequence (Q9UHD2 1-729): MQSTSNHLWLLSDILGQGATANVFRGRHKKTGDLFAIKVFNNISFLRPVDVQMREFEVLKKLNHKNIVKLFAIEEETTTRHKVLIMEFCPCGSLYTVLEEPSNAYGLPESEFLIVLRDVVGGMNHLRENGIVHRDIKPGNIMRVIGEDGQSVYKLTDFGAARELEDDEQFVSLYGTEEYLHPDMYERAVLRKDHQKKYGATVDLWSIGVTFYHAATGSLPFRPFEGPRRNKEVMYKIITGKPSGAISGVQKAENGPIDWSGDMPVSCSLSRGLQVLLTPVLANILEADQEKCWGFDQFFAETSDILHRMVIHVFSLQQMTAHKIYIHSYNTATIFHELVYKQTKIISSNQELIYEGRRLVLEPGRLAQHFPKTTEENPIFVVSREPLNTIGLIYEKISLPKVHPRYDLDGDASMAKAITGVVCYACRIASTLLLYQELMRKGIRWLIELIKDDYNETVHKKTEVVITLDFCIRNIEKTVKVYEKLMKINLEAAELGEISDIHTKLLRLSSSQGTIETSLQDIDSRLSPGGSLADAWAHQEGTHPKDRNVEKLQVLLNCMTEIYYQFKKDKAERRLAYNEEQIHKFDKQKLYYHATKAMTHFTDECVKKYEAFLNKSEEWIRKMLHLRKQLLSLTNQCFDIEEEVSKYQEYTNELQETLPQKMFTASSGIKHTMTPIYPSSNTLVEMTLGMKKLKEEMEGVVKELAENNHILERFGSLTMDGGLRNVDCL

[3] = molecular target: STK10 (Homo sapiens, UniProt O94804)
[4] = molecular target: PTK2 (Homo sapiens, UniProt Q05397)
[5] = molecular target: MAPK14 (Homo sapiens, UniProt Q16539)
[6] = molecular target: T2, MAP3K2 (Homo sapiens, UniProt Q9Y2U5)
T2 sequence (Q9Y2U5 1-619): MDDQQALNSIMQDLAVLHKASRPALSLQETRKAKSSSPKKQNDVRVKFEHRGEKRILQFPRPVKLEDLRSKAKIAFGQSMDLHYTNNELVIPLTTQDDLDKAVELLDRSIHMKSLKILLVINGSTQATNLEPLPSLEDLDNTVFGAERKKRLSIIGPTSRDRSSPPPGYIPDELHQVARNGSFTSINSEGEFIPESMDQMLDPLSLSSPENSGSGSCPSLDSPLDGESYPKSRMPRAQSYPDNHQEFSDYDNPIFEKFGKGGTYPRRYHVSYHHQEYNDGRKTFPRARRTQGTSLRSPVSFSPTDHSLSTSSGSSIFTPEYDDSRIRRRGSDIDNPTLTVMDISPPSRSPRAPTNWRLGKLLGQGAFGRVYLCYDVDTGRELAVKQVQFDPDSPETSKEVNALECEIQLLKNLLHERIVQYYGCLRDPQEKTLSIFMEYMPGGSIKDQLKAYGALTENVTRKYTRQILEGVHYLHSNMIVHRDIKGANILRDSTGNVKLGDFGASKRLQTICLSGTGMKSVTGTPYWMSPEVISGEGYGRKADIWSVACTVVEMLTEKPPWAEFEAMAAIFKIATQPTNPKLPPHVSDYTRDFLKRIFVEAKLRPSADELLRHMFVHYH

[7] = molecular target: T3, PHKG2 (Homo sapiens, UniProt P15735)
T3 sequence (P15735 1-406): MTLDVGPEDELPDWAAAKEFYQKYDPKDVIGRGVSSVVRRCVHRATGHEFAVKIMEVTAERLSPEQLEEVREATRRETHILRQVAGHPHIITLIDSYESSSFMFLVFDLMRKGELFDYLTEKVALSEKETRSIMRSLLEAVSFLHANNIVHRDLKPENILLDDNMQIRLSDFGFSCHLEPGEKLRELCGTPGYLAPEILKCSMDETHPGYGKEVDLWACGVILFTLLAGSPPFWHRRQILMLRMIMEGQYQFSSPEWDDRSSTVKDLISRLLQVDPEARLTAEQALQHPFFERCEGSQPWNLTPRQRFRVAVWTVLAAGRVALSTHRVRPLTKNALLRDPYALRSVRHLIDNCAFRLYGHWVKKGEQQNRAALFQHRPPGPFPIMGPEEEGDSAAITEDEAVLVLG

[8] = molecular target: MAP2K1 (Homo sapiens, UniProt Q02750)
[9] = molecular target: T4, PRKD2 (Homo sapiens, UniProt Q9BZL6)
T4 sequence (Q9BZL6 1-878): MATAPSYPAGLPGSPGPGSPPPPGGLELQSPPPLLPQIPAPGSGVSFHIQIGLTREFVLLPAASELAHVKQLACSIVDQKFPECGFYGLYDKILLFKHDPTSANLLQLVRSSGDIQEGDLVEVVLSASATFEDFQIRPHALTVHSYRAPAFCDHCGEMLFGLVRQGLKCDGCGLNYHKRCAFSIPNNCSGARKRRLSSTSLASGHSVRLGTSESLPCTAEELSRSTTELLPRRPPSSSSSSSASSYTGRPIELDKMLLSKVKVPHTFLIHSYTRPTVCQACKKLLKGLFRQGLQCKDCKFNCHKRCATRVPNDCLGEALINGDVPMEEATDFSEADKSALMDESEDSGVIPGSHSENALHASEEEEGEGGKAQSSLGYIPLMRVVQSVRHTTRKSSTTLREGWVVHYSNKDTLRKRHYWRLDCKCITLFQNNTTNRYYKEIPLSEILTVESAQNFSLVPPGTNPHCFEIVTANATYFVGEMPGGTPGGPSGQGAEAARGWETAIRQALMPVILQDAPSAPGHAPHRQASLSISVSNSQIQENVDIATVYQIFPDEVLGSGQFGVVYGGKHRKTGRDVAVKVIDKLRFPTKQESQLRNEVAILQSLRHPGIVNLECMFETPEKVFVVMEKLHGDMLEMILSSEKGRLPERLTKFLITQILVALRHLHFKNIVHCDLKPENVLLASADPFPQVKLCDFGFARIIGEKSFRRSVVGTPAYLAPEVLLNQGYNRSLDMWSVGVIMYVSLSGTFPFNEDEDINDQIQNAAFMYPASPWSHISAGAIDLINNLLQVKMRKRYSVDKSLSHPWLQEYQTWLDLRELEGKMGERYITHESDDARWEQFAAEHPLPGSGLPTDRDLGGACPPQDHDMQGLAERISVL

Chain of MAP2K1 (Q02750 whole entry): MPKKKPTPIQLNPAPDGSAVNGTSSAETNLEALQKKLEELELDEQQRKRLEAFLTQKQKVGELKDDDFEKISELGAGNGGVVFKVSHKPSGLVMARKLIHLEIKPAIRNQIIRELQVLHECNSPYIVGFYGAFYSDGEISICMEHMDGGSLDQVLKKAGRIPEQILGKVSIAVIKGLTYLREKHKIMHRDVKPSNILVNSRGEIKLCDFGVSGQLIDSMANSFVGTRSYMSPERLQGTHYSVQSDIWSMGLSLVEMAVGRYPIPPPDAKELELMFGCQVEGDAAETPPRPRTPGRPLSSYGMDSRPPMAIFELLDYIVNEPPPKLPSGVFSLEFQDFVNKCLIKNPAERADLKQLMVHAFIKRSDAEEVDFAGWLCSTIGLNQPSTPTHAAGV
Chain of STK10 (O94804 whole entry): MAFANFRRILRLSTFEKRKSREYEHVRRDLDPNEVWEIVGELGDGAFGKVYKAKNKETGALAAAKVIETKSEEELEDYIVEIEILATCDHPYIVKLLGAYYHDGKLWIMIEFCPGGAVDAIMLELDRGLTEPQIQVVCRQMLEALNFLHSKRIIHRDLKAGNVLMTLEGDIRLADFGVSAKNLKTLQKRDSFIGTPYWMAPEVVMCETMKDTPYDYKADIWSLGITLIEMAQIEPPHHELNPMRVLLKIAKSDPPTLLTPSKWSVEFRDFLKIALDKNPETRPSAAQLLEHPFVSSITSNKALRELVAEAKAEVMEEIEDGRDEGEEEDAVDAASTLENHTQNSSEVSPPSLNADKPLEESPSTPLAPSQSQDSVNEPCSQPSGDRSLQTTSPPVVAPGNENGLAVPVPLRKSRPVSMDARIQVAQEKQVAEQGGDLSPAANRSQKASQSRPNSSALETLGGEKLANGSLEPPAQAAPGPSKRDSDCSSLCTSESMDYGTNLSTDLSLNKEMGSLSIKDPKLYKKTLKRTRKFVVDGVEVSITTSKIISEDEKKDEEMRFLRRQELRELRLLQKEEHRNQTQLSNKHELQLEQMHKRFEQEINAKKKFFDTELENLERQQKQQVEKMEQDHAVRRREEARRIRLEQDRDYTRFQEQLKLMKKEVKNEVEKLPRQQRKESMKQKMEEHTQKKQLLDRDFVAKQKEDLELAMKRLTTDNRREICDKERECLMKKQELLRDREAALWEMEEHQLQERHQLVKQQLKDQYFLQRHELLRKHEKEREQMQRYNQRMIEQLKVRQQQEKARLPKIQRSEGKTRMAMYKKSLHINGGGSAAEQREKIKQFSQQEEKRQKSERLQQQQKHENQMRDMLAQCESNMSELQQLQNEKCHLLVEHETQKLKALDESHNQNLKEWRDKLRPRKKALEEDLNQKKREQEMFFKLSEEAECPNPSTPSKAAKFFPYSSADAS
Chain of CIT (O14578 whole entry): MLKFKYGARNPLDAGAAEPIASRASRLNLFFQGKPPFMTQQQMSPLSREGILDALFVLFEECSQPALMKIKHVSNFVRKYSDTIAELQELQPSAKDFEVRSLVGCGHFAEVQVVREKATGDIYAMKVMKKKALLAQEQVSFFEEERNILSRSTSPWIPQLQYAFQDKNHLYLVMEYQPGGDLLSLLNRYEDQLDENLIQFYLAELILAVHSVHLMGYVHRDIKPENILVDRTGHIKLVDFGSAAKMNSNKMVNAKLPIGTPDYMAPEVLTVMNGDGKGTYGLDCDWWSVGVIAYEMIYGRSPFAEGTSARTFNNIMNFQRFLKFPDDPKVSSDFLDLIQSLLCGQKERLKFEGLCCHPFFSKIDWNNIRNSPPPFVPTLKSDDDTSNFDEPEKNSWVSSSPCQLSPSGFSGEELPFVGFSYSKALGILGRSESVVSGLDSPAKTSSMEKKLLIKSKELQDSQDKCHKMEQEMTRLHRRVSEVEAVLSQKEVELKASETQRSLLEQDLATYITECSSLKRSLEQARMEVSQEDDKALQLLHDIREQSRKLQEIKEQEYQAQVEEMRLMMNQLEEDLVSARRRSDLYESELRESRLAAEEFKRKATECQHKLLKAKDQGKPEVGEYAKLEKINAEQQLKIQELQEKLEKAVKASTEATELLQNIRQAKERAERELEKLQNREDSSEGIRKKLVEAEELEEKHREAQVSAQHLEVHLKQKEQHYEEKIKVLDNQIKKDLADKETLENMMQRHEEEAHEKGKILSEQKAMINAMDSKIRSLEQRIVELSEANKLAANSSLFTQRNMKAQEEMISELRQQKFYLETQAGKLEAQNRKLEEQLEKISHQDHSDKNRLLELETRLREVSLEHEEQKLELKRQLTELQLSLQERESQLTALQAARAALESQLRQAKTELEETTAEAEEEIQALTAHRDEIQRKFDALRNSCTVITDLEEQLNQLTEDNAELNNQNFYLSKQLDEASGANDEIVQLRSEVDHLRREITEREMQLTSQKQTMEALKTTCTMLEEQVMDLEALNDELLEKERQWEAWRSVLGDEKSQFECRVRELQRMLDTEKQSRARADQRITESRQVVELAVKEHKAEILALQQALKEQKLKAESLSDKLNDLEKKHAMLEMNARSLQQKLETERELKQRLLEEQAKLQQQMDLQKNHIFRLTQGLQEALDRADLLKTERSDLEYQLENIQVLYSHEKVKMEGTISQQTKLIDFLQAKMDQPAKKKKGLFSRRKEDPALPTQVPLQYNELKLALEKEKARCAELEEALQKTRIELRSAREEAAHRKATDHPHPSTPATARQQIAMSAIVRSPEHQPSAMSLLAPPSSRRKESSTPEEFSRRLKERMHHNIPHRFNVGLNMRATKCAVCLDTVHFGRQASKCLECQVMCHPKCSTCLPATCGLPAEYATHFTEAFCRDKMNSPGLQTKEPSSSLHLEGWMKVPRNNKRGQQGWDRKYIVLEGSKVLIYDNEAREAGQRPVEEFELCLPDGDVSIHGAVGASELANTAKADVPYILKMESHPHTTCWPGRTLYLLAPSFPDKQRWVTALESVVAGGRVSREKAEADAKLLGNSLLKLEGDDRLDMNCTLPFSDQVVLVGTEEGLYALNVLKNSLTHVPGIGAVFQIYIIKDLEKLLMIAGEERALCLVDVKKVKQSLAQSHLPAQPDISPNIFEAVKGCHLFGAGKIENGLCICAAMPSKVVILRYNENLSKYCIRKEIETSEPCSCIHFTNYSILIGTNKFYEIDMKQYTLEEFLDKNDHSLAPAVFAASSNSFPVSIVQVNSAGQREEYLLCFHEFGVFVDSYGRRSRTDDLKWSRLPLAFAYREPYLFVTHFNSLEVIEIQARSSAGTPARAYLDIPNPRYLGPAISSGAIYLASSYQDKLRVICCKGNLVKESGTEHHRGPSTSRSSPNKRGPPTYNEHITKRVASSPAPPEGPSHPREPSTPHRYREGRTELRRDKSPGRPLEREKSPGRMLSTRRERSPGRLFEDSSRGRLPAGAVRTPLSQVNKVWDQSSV
Chain of MAPK14 (Q16539 whole entry): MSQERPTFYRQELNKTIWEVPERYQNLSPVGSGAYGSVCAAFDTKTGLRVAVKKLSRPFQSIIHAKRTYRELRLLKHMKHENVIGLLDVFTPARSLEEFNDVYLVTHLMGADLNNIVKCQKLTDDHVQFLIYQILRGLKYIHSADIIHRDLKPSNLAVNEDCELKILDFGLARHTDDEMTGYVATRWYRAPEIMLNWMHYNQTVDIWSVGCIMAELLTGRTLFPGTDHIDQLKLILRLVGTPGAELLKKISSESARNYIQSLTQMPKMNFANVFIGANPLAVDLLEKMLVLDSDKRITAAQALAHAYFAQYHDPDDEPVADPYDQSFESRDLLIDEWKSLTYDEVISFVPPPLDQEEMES
Chain of PTK2 (Q05397 whole entry): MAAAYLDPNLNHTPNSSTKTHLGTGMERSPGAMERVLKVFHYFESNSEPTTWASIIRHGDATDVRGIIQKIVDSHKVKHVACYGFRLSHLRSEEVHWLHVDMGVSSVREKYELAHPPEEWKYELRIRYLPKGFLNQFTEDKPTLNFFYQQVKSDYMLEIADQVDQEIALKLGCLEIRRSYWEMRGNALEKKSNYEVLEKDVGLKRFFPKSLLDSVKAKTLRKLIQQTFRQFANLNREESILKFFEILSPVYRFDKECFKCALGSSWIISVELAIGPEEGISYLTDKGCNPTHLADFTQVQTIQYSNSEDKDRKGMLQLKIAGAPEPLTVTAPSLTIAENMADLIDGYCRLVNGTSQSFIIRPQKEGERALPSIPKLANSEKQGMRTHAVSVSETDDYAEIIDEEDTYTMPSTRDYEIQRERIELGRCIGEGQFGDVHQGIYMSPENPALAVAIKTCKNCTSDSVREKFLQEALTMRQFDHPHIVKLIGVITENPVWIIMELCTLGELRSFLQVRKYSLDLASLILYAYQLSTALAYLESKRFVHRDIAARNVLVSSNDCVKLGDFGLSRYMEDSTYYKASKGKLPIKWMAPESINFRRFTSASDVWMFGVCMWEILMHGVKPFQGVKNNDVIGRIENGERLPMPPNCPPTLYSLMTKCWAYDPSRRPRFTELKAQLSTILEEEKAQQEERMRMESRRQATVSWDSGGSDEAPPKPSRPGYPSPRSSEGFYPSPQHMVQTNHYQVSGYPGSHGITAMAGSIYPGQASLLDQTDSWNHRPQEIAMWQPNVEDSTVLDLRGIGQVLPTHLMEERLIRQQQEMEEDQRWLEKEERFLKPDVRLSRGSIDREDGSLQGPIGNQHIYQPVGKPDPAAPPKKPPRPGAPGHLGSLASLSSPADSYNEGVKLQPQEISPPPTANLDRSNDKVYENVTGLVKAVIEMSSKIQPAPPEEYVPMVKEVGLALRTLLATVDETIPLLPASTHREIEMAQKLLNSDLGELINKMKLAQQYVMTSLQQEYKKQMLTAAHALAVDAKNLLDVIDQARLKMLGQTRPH

| SMILES | IC50 [1] | IC50 [2] | IC50 [3] | IC50 [4] | IC50 [5] | IC50 [6] | IC50 [7] | IC50 [8] | IC50 [9] |
| --- | --- | --- | --- | --- | --- | --- | --- | --- | --- |
| CN(C)CC(O)COc1ccc(Nc2ncc([N+](=O)[O-])c(Nc3ccccc3O)n2)cc1.O=C(O)C(F)(F)F (stereo not drawn) [TCMDC-141399] | 4400 nM | > 20000 nM | 6300 nM | 90 nM and 97 nM | > 20000 nM | > 20000 nM | > 20000 nM | > 20000 nM | 1900 nM |
| Cl.NCC1(c2nc(-c3ccc(Cl)c(O)c3)c(-c3ccncc3)[nH]2)CCCCC1 [TCMDC-141154] | 160 nM and 280 nM | > 20000 nM | 57 nM | > 20000 nM | ≤ 32 nM | 1200 nM | > 20000 nM | 9700 nM and > 20000 nM | 5200 nM and 4300 nM |
| CN1CCN(c2ccc(Nc3ncc(C#N)c(Nc4ccccc4C(N)=O)n3)cc2)CC1.Cl [TCMDC-134116] | 5700 nM and 5800 nM | 530 nM and 510 nM | 48 nM and 93 nM | 44 nM and 58 nM | > 20000 nM | 490 nM | 2800 nM | 1800 nM and 1600 nM | 340 nM and 330 nM |
